Assay results from patent US10369093B2, “Stable solution of hexamidine salts in alkanediol-water mixtures, with antimicrobial and skin-moisturising effect” (MINASOLVE GERMANY GMBH, priority 2015, dated 2019).

What was measured:
[1] = test system: forearms of healthy volunteers (human skin); assay: Corneometry test for moisturizing effect; format: in vivo; details: 3% in H2O
Protocol: To test the moisturizing effect of various substances and mixtures, the test substances were diluted with distilled water to a concentration of 2-3%. The diluted solutions were applied to the forearms of healthy volunteers (number: 12, age: 19-64 years). Before and after the simple application, the skin moisture of the treated skin areas was measured instrumentally with the aid of a Corneometer CM825, combined with a Cutometer dual MPA 580 from Courage & Khazaka. All measurements were preceded by acclimatization of the subjects in a controlled environment (21° C.±1° C., 45%±10% humidity). The measurement results are given as a percentage change from the initial value after 1 h, 2 h, 4 h, 8 h and 24 h and are summarized in Table 4.

Escherichia coli = assay: Minimum inhibitory concentration, suspension test; format: cell-based; details: 3 days at 37° C.
Protocol: (§1) Minimal inhibitory concentrations against bacteria, fungi and yeasts were determined by means of a suspension test. For this purpose, nine-stage dilution series of the respective test substances were prepared in 1:1 mixtures of CASO broth and distilled water. For the tests with mushrooms and yeasts in each case 2% dextrose was added. Each microorganism was tested separately in a test tube containing 10 ml of said culture medium. To each tube was added 0.1 ml of a suspension containing 5×10^8 colony forming units (CFU) for bacteria and 1×10^7 CFU for fungi and yeasts, respectively. Each tube was incubated for 3 days at 37° C. (bacteria) or for 4 days at 30° C. (fungi and yeasts). The minimum inhibitory concentration was defined as the concentration at which no turbidity or other visible signs of microbial growth were observed after the end of the test period.

Pseudomonas aeruginosa = assay: Minimum inhibitory concentration, suspension test; format: cell-based; details: 3 days at 37° C.
Protocol: as §1

Staphylococcus aureus = assay: Minimum inhibitory concentration, suspension test; format: cell-based; details: 3 days at 37° C.
Protocol: as §1

Aspergillus brasiliensis = assay: Minimum inhibitory concentration, suspension test; format: cell-based; details: 4 days at 30° C.
Protocol: as §1

Candida albicans = assay: Minimum inhibitory concentration, suspension test; format: cell-based; details: 4 days at 30° C.
Protocol: as §1

[2] = according to EP1477157B1; cited from earlier work
[3] = BASF data sheet Elestab HP100; cited from earlier work

Minimal Inhibitory Concentration (MIC) (Escherichia coli) [%]	Minimal Inhibitory Concentration (MIC) (Pseudomonas aeruginosa) [%]	Minimal Inhibitory Concentration (MIC) (Staphylococcus aureus) [%]	Minimal Inhibitory Concentration (MIC) (Aspergillus brasiliensis) [%]	Minimal Inhibitory Concentration (MIC) (Candida albicans) [%]	SMILES	corneometry, % change compared to T0 after 1 h [1]	corneometry, % change compared to T0 2 h [1]	corneometry, % change compared to T0 4 h [1]	corneometry, % change compared to T0 8 h [1]	corneometry, % change compared to T0 24 h [1]	C log P [2]	compatible pH range [3]
2.5	2.5	4.0	2.5	2.5	CCCC(O)CO (centres unmarked) [1,2-pentanediol]	+18.8%	+31.6%	+37.7%	+21.6%	+13.1%	–	–
–	–	–	–	–	OCCCCCCCO [1,7-heptanediol]	–	–	–	–	–	+0.46	–
–	–	–	–	–	CCCCC(O)CO (centres unmarked) [1,2-hexanediol]	–	–	–	–	–	+0.25	–
–	–	–	–	–	OCC(O)CO [glycerin]	+34.3%	+40.2%	+39.5%	+29.9%	+17.5%	–	–
0.01	0.1	0.0025	0.0005	0.01	N=C(N)c1ccc(OCCCCCCOc2ccc(C(=N)N)cc2)cc1 [hexamidine diisethionate, 2-hydroxyethanesulfonic acid-4,4′-[1,6-hexanediylbis(oxy)]dibenzenecarboximidamide]	–	–	–	–	–	–	3-8
